Laboratory results from patent US4791118A, “Quinolonecarboxylic acid derivatives and their preparation” (Kyorin Pharmaceutical Co., Ltd., priority 1985, dated 1988).
In brackets after ≈: the same amount, converted by molar mass. Like-named read-outs stand apart in the source and are kept apart here.

Tests used:
S. pneumoniae 17 = test: MIC, clinical isolates; type: cell-based; details: Streptococcus pneumoniae; clinical isolate S. pneumoniae 17; 10^6 cells/ml
S. pneumoniae IID 552 = test: MIC, aerobic bacteria; type: cell-based; details: Streptococcus pneumoniae, IID552, Gram +, 10^6 cells/ml
S. agalactiae 4470 = test: MIC, clinical isolates; type: cell-based; details: Streptococcus agalactiae; clinical isolate S. agalactiae 4470; 10^6 cells/ml
P. aeruginosa IID 1210 = test: MIC, aerobic bacteria; type: cell-based; details: Pseudomonas aeruginosa, IID1210, Gram -, 10^6 cells/ml
S. pyogenes 3130 = test: MIC, clinical isolates; type: cell-based; details: Streptococcus pyogenes; clinical isolate S. pyogenes 3130; 10^6 cells/ml
S. pyogenes 4340 = test: MIC, clinical isolates; type: cell-based; details: Streptococcus pyogenes; clinical isolate S. pyogenes 4340; 10^6 cells/ml
K. pneumoniae 1-220S = test: microbe, parasite or virus in culture; details: Klebsiella pneumoniae, 1220S
E. faecalis 401 = test: MIC, clinical isolates; type: cell-based; details: Enterococcus faecalis; clinical isolate E. faecalis 401; 10^6 cells/ml
[1] = test system: Citrobacter freundii IID 976; test: MIC, aerobic bacteria; type: cell-based; details: IID976, Gram -, 10^6 cells/ml
Source text: (§1) | Organism (10^6 cells/ml)

[2] = test system: Escherichia coli NIHJ JC-2; test: MIC, aerobic bacteria; type: cell-based; details: NIHJJC2, Gram -, 10^6 cells/ml
Source text: as §1

[3] = test system: Serratia marcescens IID 618; test: MIC, aerobic bacteria; type: cell-based; details: IID618, Gram -, 10^6 cells/ml
Source text: as §1

[4] = test system: Klebsiella pneumoniae KY(GN)6445; test: MIC, aerobic bacteria; type: cell-based; details: Gram -, 10^6 cells/ml
Source text: as §1

P. mirabilis IID 992 = test: MIC, aerobic bacteria; type: cell-based; details: Proteus mirabilis, IID992, Gram -, 10^6 cells/ml
Source text: as §1

[5] = test system: Morganella morganii IID 602; test: MIC, aerobic bacteria; type: cell-based; details: IID602, Gram -, 10^6 cells/ml
Source text: as §1

[6] = test system: S. aureus IID 670 (Terajima); test: MIC, aerobic bacteria; type: cell-based; details: Staphylococcus aureus, IID670, Gram +, 10^6 cells/ml
Source text: as §1

[7] = test system: Proteus vulgaris IFO 3167; test: MIC, aerobic bacteria; type: cell-based; details: IFO3167, Gram -, 10^6 cells/ml
Source text: as §1

E. coli ATCC 10536 = test: MIC, aerobic bacteria; type: cell-based; details: Escherichia coli, ATCC10536, Gram -, 10^6 cells/ml
Source text: as §1

[8] = test system: Acinetobacter anitratus IID 876; test: MIC, aerobic bacteria; type: cell-based; details: Acinetobacter calcoaceticus, IID876, Gram -, 10^6 cells/ml
Source text: as §1

S. epidermidis IID 866 = test: MIC, aerobic bacteria; type: cell-based; details: Staphylococcus epidermidis, IID866, Gram +, 10^6 cells/ml
Source text: as §1

S. pneumoniae 4288 = test: MIC, clinical isolates; type: cell-based; details: Streptococcus pneumoniae; clinical isolate S. pneumoniae 4288; 10^6 cells/ml
S. pyogenes 4372 = test: MIC, clinical isolates; type: cell-based; details: Streptococcus pyogenes; clinical isolate S. pyogenes 4372; 10^6 cells/ml
E. faecalis 604 = test: MIC, clinical isolates; type: cell-based; details: Enterococcus faecalis; clinical isolate E. faecalis 604; 10^6 cells/ml
[9] = test system: Pseudomonas aeruginosa V-1; test: MIC, aerobic bacteria; details: V1
P. aeruginosa IFO 12689 = test: MIC, aerobic bacteria; type: cell-based; details: Pseudomonas aeruginosa, IFO12689, Gram -, 10^6 cells/ml
[10] = test system: B. thetaiotaomicron (0661); test: MIC, anaerobic bacteria; type: cell-based; details: Bacteroides thetaiotaomicron, Gram -, 10^6 cells/ml
S. pneumoniae 15 = test: MIC, clinical isolates; type: cell-based; details: Streptococcus pneumoniae; clinical isolate S. pneumoniae 15; 10^6 cells/ml
[11] = test system: Propionibacterium acens 11828; test: MIC, anaerobic bacteria; type: cell-based
[12] = test system: Yersinia enterocolitica IID 981; test: microbe, parasite or virus in culture; details: IID981
S. agalactiae 4049 = test: MIC, clinical isolates; type: cell-based; details: Streptococcus agalactiae; clinical isolate S. agalactiae 4049; 10^6 cells/ml
S. agalactiae 4368 = test: MIC, clinical isolates; type: cell-based; details: Streptococcus agalactiae; clinical isolate S. agalactiae 4368; 10^6 cells/ml
S. marcescens GN 7577 = test: MIC, aerobic bacteria; type: cell-based; details: Serratia marcescens, GN7577, Gram -, 10^6 cells/ml
[13] = test system: Salmonella enteritidis IID 604; test: microbe, parasite or virus in culture; details: Salmonella enterica
S. agalactiae 4468 = test: MIC, clinical isolates; type: cell-based; details: Streptococcus agalactiae; clinical isolate S. agalactiae 4468; 10^6 cells/ml
[14] = test system: B. melaninogenicus GAI 0410; test: MIC, anaerobic bacteria; details: Prevotella intermedia, GAI0410
Shigella sonnei IID 969 = test: microbe, parasite or virus in culture; details: IID969
E. faecalis IID 682 = test: MIC, aerobic bacteria; type: cell-based; details: Enterococcus faecalis, IID682, Gram +, 10^6 cells/ml
[15] = test system: Alcaligenes faecalis 0114002; test: MIC, aerobic bacteria

Row | Structure (SMILES) | MIC (S. pneumoniae 17) [µg/mL] | MIC (S. pneumoniae IID 552) [µg/mL] | MIC (S. agalactiae 4470) [µg/mL] | MIC (P. aeruginosa IID 1210) [µg/mL] | MIC (S. pyogenes 3130) [µg/mL] | MIC (S. pyogenes 4340) [µg/mL] | MIC (K. pneumoniae 1-220S) [µg/mL] | MIC (E. faecalis 401) [µg/mL] | MIC [1] [µg/mL] | MIC [2] [µg/mL] | MIC [3] [µg/mL] | MIC [4] [µg/mL] | MIC (P. mirabilis IID 992) [µg/mL] | MIC [5] [µg/mL] | MIC [6] [µg/mL] | MIC [7] [µg/mL] | MIC (E. coli ATCC 10536) [µg/mL] | MIC [8] [µg/mL] | MIC (S. epidermidis IID 866) [µg/mL] | MIC (S. pneumoniae 4288) [µg/mL] | other results
1 | O=C(O)c1cn(C2CC2)c2c(Cl)c(N3CCC(CNCCF)C3)c(F)cc2c1=O (centres unmarked) [Exp. 1, 8-Chloro-1-cyclopropyl-6-fluoro-7-[3-(2-fluoroethyl)aminomethyl-1-pyrrolidinyl]-1,4-dihydro-4-oxo-3-quinolinecarboxylic acid] | 0.025 (≈ 0.0587 µM) | 0.025 (≈ 0.0587 µM) | 0.025 (≈ 0.0587 µM) | 1.56 (≈ 3.66 µM) | 0.025 (≈ 0.0587 µM) | 0.025 (≈ 0.0587 µM) | 0.1 (≈ 0.235 µM) | 0.05 (≈ 0.117 µM) | 0.05 (≈ 0.117 µM) | 0.0125 (≈ 0.0294 µM) | 0.1 (≈ 0.235 µM) | 0.05 (≈ 0.117 µM) | 0.025 (≈ 0.0587 µM) | 0.1 (≈ 0.235 µM) | ≤ 0.0063 | 0.025 (≈ 0.0587 µM) | 0.0125 (≈ 0.0294 µM) | 0.05 (≈ 0.117 µM) | 0.0125 (≈ 0.0294 µM) | 0.025 (≈ 0.0587 µM) | MIC (S. pyogenes 4372): 0.025 µg/mL (≈ 0.0587 µM); MIC (E. faecalis 604): 0.05 µg/mL (≈ 0.117 µM); MIC [9]: 0.39 µg/mL (≈ 0.916 µM); MIC (P. aeruginosa IFO 12689): 1.56 µg/mL (≈ 3.66 µM); MIC [10]: 0.2 µg/mL (≈ 0.47 µM); MIC (S. pneumoniae 15): 0.025 µg/mL (≈ 0.0587 µM); MIC ([11]; Propionibacterium, 11828): 0.78 µg/mL (≈ 1.83 µM); MIC [12]: 0.1 µg/mL (≈ 0.235 µM); MIC (S. agalactiae 4049): 0.025 µg/mL (≈ 0.0587 µM); MIC (S. agalactiae 4368): 0.025 µg/mL (≈ 0.0587 µM); MIC (S. marcescens GN 7577): 1.56 µg/mL (≈ 3.66 µM); MIC [13]: 0.1 µg/mL (≈ 0.235 µM); MIC (S. agalactiae 4468): 0.025 µg/mL (≈ 0.0587 µM); MIC [14]: 0.1 µg/mL (≈ 0.235 µM); MIC (Shigella sonnei IID 969): 0.0125 µg/mL (≈ 0.0294 µM); MIC (E. faecalis IID 682): 0.05 µg/mL (≈ 0.117 µM); MIC [15]: 0.39 µg/mL (≈ 0.916 µM)
2 | O=C(O)c1cn(C2CC2)c2c(F)c(N3CCC(CNCCF)C3)c(F)cc2c1=O (centres unmarked) [Exp. 2, 1-Cyclopropyl-7-[3-(2-fluoroethyl)aminomethyl-1-pyrrolidinyl]-6,8-difluoro-1,4-dihydro-4-oxo-3-quinolinecarboxylic acid] | 0.05 (≈ 0.122 µM) | 0.05 (≈ 0.122 µM) | 0.05 (≈ 0.122 µM) | 1.56 (≈ 3.81 µM) | 0.05 (≈ 0.122 µM) | 0.05 (≈ 0.122 µM) | 0.1 (≈ 0.244 µM) | 0.1 (≈ 0.244 µM) | 0.05 (≈ 0.122 µM) | 0.025 (≈ 0.0611 µM) | 0.2 (≈ 0.489 µM) | 0.05 (≈ 0.122 µM) | 0.05 (≈ 0.122 µM) | 0.2 (≈ 0.489 µM) | 0.025 (≈ 0.0611 µM) | 0.05 (≈ 0.122 µM) | 0.025 (≈ 0.0611 µM) | 0.05 (≈ 0.122 µM) | 0.025 (≈ 0.0611 µM) | 0.05 (≈ 0.122 µM) | MIC (S. pyogenes 4372): 0.05 µg/mL (≈ 0.122 µM); MIC (E. faecalis 604): 0.1 µg/mL (≈ 0.244 µM); MIC [9]: 0.39 µg/mL (≈ 0.953 µM); MIC (P. aeruginosa IFO 12689): 1.56 µg/mL (≈ 3.81 µM); MIC [10]: 0.78 µg/mL (≈ 1.91 µM); MIC (S. pneumoniae 15): 0.05 µg/mL (≈ 0.122 µM); MIC ([11]; Propionibacterium acens 11828, anaerobic, Gram +, 10^6 cells/ml, read-out: MIC): 1.56 µg/mL (≈ 3.81 µM); MIC [12]: 0.1 µg/mL (≈ 0.244 µM); MIC (S. agalactiae 4049): 0.05 µg/mL (≈ 0.122 µM); MIC (S. agalactiae 4368): 0.05 µg/mL (≈ 0.122 µM); MIC (S. marcescens GN 7577): 1.56 µg/mL (≈ 3.81 µM); MIC [13]: 0.1 µg/mL (≈ 0.244 µM); MIC (S. agalactiae 4468): 0.05 µg/mL (≈ 0.122 µM); MIC [14]: 0.39 µg/mL (≈ 0.953 µM); MIC (Shigella sonnei IID 969): 0.0125 µg/mL (≈ 0.0305 µM); MIC (E. faecalis IID 682): 0.1 µg/mL (≈ 0.244 µM); MIC [15]: 0.39 µg/mL (≈ 0.953 µM)
